Measured values as given in patent US20130338203A1, “TREATMENT OF ARTERIAL AGEING BY COMBINATION OF RAAS INHIBITOR AND HMG-CoA REDUCTASE INHIBITOR” (FARMICOM PHARMACEUTICAL COMPANY D.O.O., priority 2011, published 2013).
Like-named read-outs stand apart in the source and are kept apart here.

Experiments:
[1] = test system: isolated rat aortic rings; assay: Endothelium-dependent relaxation of isolated aortic rings after incubation with drugs (Example 12)
heart = assay: Coronary flow rate after 6 weeks oral treatment (Example 13); type: in vivo, Wistar rats; details: rats, 6 weeks treatment p.o., 40-minute ischemia, reperfusion, P < 0.001
Description: Sixty Wistar rats of both sexes weighing 230-280 g, 20-24 weeks of age, were obtained from the Faculty of Medicine, Ljubljana. […] A regular 12 h circadian cycle was maintained and between 5 and 7 animals were kept in each cage. The temperature of the experimental environment was 23-25° C. […] After 4-8 weeks of therapy the animals were sacrificed, blood samples were collected and heart and thoracic aorta were isolated. Each group was composed of the same number of male and female rats.

isolated rat heart [2] = assay: Coronary flow rate of isolated heart, ischaemia-reperfusion (Example 12)
thoracic aorta = assay: Endothelium-dependent relaxation of thoracic aorta after 6 weeks oral treatment (Example 13); type: in vivo, Wistar rats; details: rats, 6 weeks treatment p.o., NS
Description: Sixty Wistar rats of both sexes weighing 230-280 g, 20-24 weeks of age, were obtained from the Faculty of Medicine, Ljubljana. […] A regular 12 h circadian cycle was maintained and between 5 and 7 animals were kept in each cage. The temperature of the experimental environment was 23-25° C. […] After 4-8 weeks of therapy the animals were sacrificed, blood samples were collected and heart and thoracic aorta were isolated. Each group was composed of the same number of male and female rats. […] After mounting, rings were allowed to equilibrate at 20 mN resting tension (found to be optimal in previous experiments) for 60 min. During this period, the tension was periodically adjusted to the desired level and the K-H solution was changed every 10 minutes. After the equilibration period, the rings were contracted three times with 60 mmol/L KCl to achieve stable contractions. […] In control animals the endothelium-dependent relaxation of the thoracic aorta was constant. However, in rats treated with drugs the percentage of endothelium-dependent relaxation was increased in comparison to the control group.

[3] = in vivo; cited from earlier work
isolated rat heart [4] = assay: LDH release rate, myocardial ischaemic-reperfusion injury of isolated heart (Example 12); details: losartan 1 μM; P < 0.01
brachial artery = details: cited from earlier work; for FMD, improvement (increase): Ex 8 valsartan group, 30 days vs before
common carotid artery = details: cited from earlier work
carotid artery = details: cited from earlier work
arterial wall = details: Ex 8 valsartan group, cited from earlier work
[5] = test system: high sensitivity C-reactive protein (hsCRP); details: Ex 9 valsartan group, 1 month treatment; calculated on data from co-pending patent application; cited from earlier work
[6] = Ex 8, 1 month treatment period with Valsartan only
[7] = Ex 8 valsartan group, 20 mg daily, 30 days vs before
[8] = Ex 8 valsartan group, 20 mg daily, 30 days
[9] = Ex 8 valsartan group, 7 months of rest period

CC(C)c1c(C(=O)Nc2ccccc2)c(-c2ccccc2)c(-c2ccc(F)cc2)n1CC[C@@H](O)C[C@@H](O)CC(=O)O [atorvastatin]
Endothelium dependent relaxation compared to controls ([1]; atorvastatin 1 μM, P < 0.001): 21.1%
Increase in coronary flow compared to controls (heart; daily dose 5 mg/kg): 86.9%
Increase in coronary flow compared to controls (isolated rat heart [2]; atorvastatin 0.1 μM, P < 0.05): 52.9%
Increase of endothelium dependent relaxation compared to controls (thoracic aorta; daily dose 5 mg/kg): 6.9%

CC(C)n1c(/C=C/C(O)CC(O)CC(=O)O)c(-c2ccc(F)cc2)c2ccccc21 (stereo not drawn) [fluvastatin]
half-life time (t1/2) in the blood plasma [3]: about 2.5 hours

CCCCc1nc(Cl)c(CO)n1Cc1ccc(-c2ccccc2-c2nn[nH]n2)cc1 [losartan]
half-life time (t1/2) in the blood plasma [3]: 1.5 to 2 h
Endothelium dependent relaxation compared to controls ([1]; losartan 10 μM, P < 0.01): 17.0%
Increase in coronary flow compared to controls (heart; daily dose 2 mg/kg): 89.6%
Increase in coronary flow compared to controls (isolated rat heart [2]; losartan 1 μM, P < 0.001): 67.3%
Decrease of the LDH release rates compared to controls (isolated rat heart [4]): 58.6%
Increase of endothelium dependent relaxation compared to controls (thoracic aorta; daily dose 2 mg/kg): 7.3%

CCCCC(=O)N(Cc1ccc(-c2ccccc2-c2nnn[nH]2)cc1)[C@H](C(=O)O)C(C)C [valsartan]
half-life time (t1/2) in the blood plasma [3]: about 6.0 hours
FMD, residual improvement in % of effect achieved after 1 month of treatment (brachial artery; Ex 8 valsartan group (20 mg daily, 30 days), 7 months of rest period): 30.4%
FMD, improvement (increase) (brachial artery; 20 mg daily): +156.0%
FMD, improvement (increase) (brachial artery; 20 mg daily, listed as Valsartan): 156.0%
FMD, after treatment (brachial artery; Ex 8 valsartan group: healthy men 43.0 y (n=20), 20 mg daily, 30 days, data from co-pending patent application): 5.40%
FMD, before treatment (brachial artery; Ex 8 valsartan group: healthy men 43.0 y (n=20), baseline, data from co-pending patent application): 2.11%
PWV decreased by (common carotid artery; [6]): 7.2%
PWV, improvement (common carotid artery; [7]): −7.2%
PWV, after treatment (common carotid artery; [8]): 5.41 m/s
PWV, residual improvement in % of effect achieved after 1 month of treatment (common carotid artery; [9]): 9.9%
PWV, before treatment (common carotid artery; Ex 8 valsartan group, baseline): 5.80 m/s
β-stiffness of the carotid artery decreased by (carotid artery; [6]): 13.7%
β-stiffness, improvement (carotid artery; [7]): −13.7%
β-stiffness, after treatment (carotid artery; [8]): 6.40 U
β-stiffness, residual improvement in % of effect achieved after 1 month of treatment (carotid artery; [9]): 9.2%
β-stiffness, before treatment (carotid artery; Ex 8 valsartan group, baseline): 7.28 U
Arterial age according to age normogram, improvement (arterial wall; 20 mg daily, 30 days vs before): −7.0 years
Arterial age according to age normogram, after treatment (arterial wall; 20 mg daily, 30 days): 38.0 years
Arterial age according to age-related normogram (arterial wall; 7 months of rest period): 43.5 years
Arterial age, difference to before treatment (in brackets) (arterial wall; 7 months of rest period): −1.5 years
Arterial age according to age normogram, before treatment (arterial wall; baseline): 45.0 years
Change in hs-CRP value after treatment [5]: +2.45%
